We go through eight compounds from US20250092058A1 (priority 2018, published 2025).

Assay [1] has as its system FaDu. In words: MTT assay FaDu. In kind it is cell-based. The settings on record: Table 5 lower part; FaDu head-and-neck cancer. As for the experimental part:
(§1) MTT assays. […] Viable cells (2500 cells per well) were plated in each well in 96-well plates. After an overnight incubation, cells were treated with and without relevant drugs alone and in combination, respectively, at various concentrations and incubated for 72 hours. MTT, a colorimetric substrate, was added to a final concentration of 0.4 mg/ml to each well. Cells in 96-well plates were further incubated in a 5% CO2 incubator at 37° C. for 4 hours, and then the medium was aspirated. The MTT metabolic product formazan was solubilized by adding 200 ul of DMSO to each well. Absorbance in the relevant wells was measured at 570 nm using an Ultra Microplate Reader (Bio-Tek Instruments). Each experiment was performed at least in triplicate. IC50/EC50 values were calculated from a series of drug dose ranges for each analyzed compound, using GraphPad Prism 6 (GraphPad Software, Inc., La Jolla, CA).
(§2) The inhibition of cell growth and viability in various cancer cell types were tested using MTT assay for references.
Background: Formazan colour is commonly taken as a measure of viable cells.

Assay [2] deals with H1376. As to the method:
as §1, §2

For assay [3], the system named is UMUC-3. As to the method: as §1, §2
Assay [4] deals with RT4. In words: MTT assay RT4. In kind it is cell-based. The note with it: Table 5 lower part; RT4 bladder cancer. As for the experimental part: as §1, §2
Assay [5] relates to T24. In words: MTT assay T24. It counts as cell-based. The note with it: Table 5 lower part; T24 bladder cancer. As to the method:
as §1, §2

Assay [6] deals with PDX14244 and PDX27454. In words: Pancreatic PDX14244 (left flank) and colorectal PDX27454 (right flank) in the same SCID mice. In kind it is in vivo. The note with it: oral weekly for 4 times. As to the method:
Human xenograft tumors used.
The vehicle is the same aqueous suspension without FL7N-1. Experimental SCID mice were subcutaneously implanted with 30-40 mg individual PDX tumors (isolated from maintenance mice) at the flank area (left side for PDX14244, and right side for PDX27454) of SCID mice. […] The animal model of PDX tumors was orally treated weekly for 3 times as shown with black arrows. […] Thus, FL7N-1 may be a priority candidate to be developed for treatment of children rare disease retinoblastoma.
The vehicle is the same think aqueous suspension without drug. Experimental SCID mice were subcutaneously implanted with 30-40 mg individual PDX tumors (isolated from maintenance mice) at the flank area (left side for PDX14244, and right side for PDX27454) of SCID mice. […] The animal model of PDX tumors was orally treated weekly for 3 times as shown with black arrows.
The vehicle is the same think aqueous suspension without drug. Experimental SCID mice were subcutaneously implanted with 30-40 mg individual PDX tumors (isolated from maintenance mice) at the flank area (left side for PDX14244, and right side for PDX27454) of SCID mice. […] The animal model of PDX tumors was orally treated weekly for 4 times (one cycle/course, as shown with black arrows).
The vehicle is the same think aqueous suspension without drug. Experimental SCID mice were subcutaneously implanted with 30-40 mg individual PDX tumors (isolated from maintenance mice) at the flank area (left side for PDX14244, and right side for PDX27454) of SCID mice. […] The animal model of PDX tumors was orally treated weekly for 3 times in two doses due to drug limitation then (as shown with black arrows).

Assay [7] deals with A2008. In words: MTT assay A2008. It counts as cell-based. As for the experimental part:
as §1, §2

The test system of assay [8] is HT-3. In words: MTT assay HT-3. In kind it is cell-based, human. The note with it: Table 5 lower part. As for the experimental part: as §1, §2
Assay [9] has as its system UOK151. As for the experimental part:
as §1, §2

Assay [10] deals with UOK262. As for the experimental part:
as §1, §2

For assay [11], the system named is A549. In words: MTT assay A549. It counts as cell-based, human. The note with it: Table 9. As for the experimental part: MTT assays. […] Each experiment was performed at least in triplicate.
Assay [12] concerns SW620 xenograft tumors. The note with it: oral weekly for 1-2 times. An excerpt: Human xenograft tumors used. In this invention disclose, human SW620 (colorectal), HT29 (colorectal) and HT-3 (retinoblastoma) cancer cell line-established xenograft tumors were used. Human tumor cell line-derived xenograft tumors are initially established by subcutaneously injecting 2-5×10^6 cultured cancer cells in a volume of 100-150 p L medium into the flank area of severe combined immunodeficiency (SCID) mice. The derived tumors are then passed a couple of generations in mice by transplanting 30-50 mg non-necrotic tumor mass via a trocar for experiments or maintenance. […] PDX tumors were originally established on severe Combined Immunodeficiency (SCID) mice from pancreatic and colorectal cancer patient tumor tissues obtained from metastatic sites of the disease in the clinic.
Human SW620 xenograft tumors were initially established by subcutaneously injection of 2-5×10^6 SW620 cells in a volume of 100-150 μL medium. Mouse models of SW620 xenografts were set up by subcutaneously inoculating 30-40 mg tumor tissue (isolated from tumor maintenance SCID mice) on the flank of SCID mice. Treatment with individual compounds was initiated 7-14 days after the transplanted tumors reached 100-200 mm^3 (designated day 0). The treatment schedule is weekly for 1-2 times in a series of dose levels based on the available drug amounts then. The individual compounds were formulated in an organic solvent-free with HPβCD in 2% HPMC (hydroxypropyl methylcellulose) and 1% PG (propylene glycol) in saline (a thick aqueous suspension) for oral administration. The vehicle is the same thick aqueous suspension without drug.

The test system of assay [13] is PANC1-GFPcODC cells. In words: Trypan blue exclusion, PANC1-GFPcODC cells. It counts as cell-based, human. The settings on record: 4-day treatment. An excerpt: Generation of A2780-GFPcODC, A2780CP-GFPcODC and PANC1GFPcODC cells and fluorescence microscopy to detect stem-like and drug resistant green cells. The retroviral expression vector pQCXIN-ZsGreen-cODC (ornithine decarboxylase), containing a green fluorescence marker, was kindly provided by Dr. Frank Pajonk (Vlashi E, et al., In vivo imaging, tracking, and targeting of cancer stem cells. J Natl Cancer Inst. 2009; 101: 350-9). The retroviral particles collected from packaging cells that transfected with the above vector were infected into A2780, A2780CP and PANC1 cells, respectively. The transfected cell pool was used for experiments. […] Cell images were acquired digitally using the Olympus IX73 Inverted Score s (Olympus). Percentages of living cells were obtained from the average of the total cells counted from 10 microscopic fields.
Next, we applied the same system to generate pancreatic cancer PANC1-GFPcODC cells.

For assay [14], the system named is A2780CP70-GFPcODC cells. In words: GFPcODC drug-resistant cell tracking, A2780CP. In kind it is cell-based, human. The note with it: 10 μM, 72 h. From the text:
Generation of A2780-GFPcODC, A2780CP-GFPcODC and PANC1GFPcODC cells and fluorescence microscopy to detect stem-like and drug resistant green cells. The retroviral expression vector pQCXIN-ZsGreen-cODC (ornithine decarboxylase), containing a green fluorescence marker, was kindly provided by Dr. Frank Pajonk (Vlashi E, et al., In vivo imaging, tracking, and targeting of cancer stem cells. J Natl Cancer Inst. 2009; 101: 350-9). The retroviral particles collected from packaging cells that transfected with the above vector were infected into A2780, A2780CP and PANC1 cells, respectively. The transfected cell pool was used for experiments. The transfected cells were treated with and without cisplatin or FL118 alone or in combination for defined times. Cell images were acquired digitally using the Olympus IX73 Inverted Score s (Olympus). Percentages of living cells were obtained from the average of the total cells counted from 10 microscopic fields.
To test this, we used a novel approach developed in Dr. Pajonk's lab for the live tracking of drug resistant cells (Vlashi E, et al., In vivo imaging, tracking, and targeting of cancer stem cells. J Natl Cancer Inst. 2009; 101: 350-9). This approach takes advantage of reduced 26S proteasome activity of drug resistant cells. […]

For assay [15], the system named is PDX10978. In words: Pancreatic cancer PDX10978 in SCID mice. It counts as in vivo. The note with it: FL118 0.75 mg/kg or gemcitabine 60 mg/kg ip qw×4. As to the method:
Human pancreatic cancer patient-derived xenograft (PDX) tumor mouse model and treatment. Experiments followed the IACUC-approved mouse protocol. Briefly, human PDAC PDX tumors maintained on SCID mice were isolated, and a piece of non-necrotic tumor tissues (30-40 mg) were subcutaneously transplanted into the flank area of female SCID mice. […] In this study, we used the timesaving intraperitoneal (ip) route for drug administration. […] The formulation process was described in detail in our previous patent (PCT/US2011/058558). […] Tumor length (L) and width (W) were measured using digital vernier calipers 1-3 times per week until the end of experimental studies. The tumor volume (v) was calculated using the formula: v=0.5 (L×W^2). Then the tumor size was divided by the day 0 tumor size as percentage tumor size versus day 0. The mean tumor volume ± standard deviation (SD) at each time point was derived from 5 mice in each group. The tumor curves were made using Sigma Plot software.
It has been recently documented that pancreatic cancer PDXs retain active paracrine/Hedgehog signaling, and desmoplasia is active in PDX tumor mouse models.

The mark [16] stands for this setting: Table 5 lower part, H1376 bladder cancer.
[17] abbreviates: Table 5 lower part, UMUC-3 bladder cancer.
Where [18] appears, read: Table 5 lower part, A2008 ovarian cancer.

Like-named read-outs stand apart in the source and are kept apart here.

As for `CCc1ccc(-c2c3c(nc4cc5c(cc24)OCO5)-c2cc4c(c(=O)n2C3)COC(=O)[C@]4(O)CC)cc1` [7Q 6], the IC50/EC50 in [1] is recorded as 0.85 nM; in assay [2] (setting [16]), 386 nM; in assay [3] (setting [17]) it was 0.4 nM; in [4], 1.51 nM; in assay [5], 0.19 nM; in assay [7] (setting [18]), 1.34 nM. Also, the IC50/EC50 in [8] (HT-3) was 3.11 nM. For the same compound, in [6], the “antitumor activity, 7Q-series (1)” value is “much higher antitumor activity than the other compounds in this 7Q-series (1)”.
In the case of `CC[C@@]1(O)C(=O)OCc2c1cc1n(c2=O)Cc2c-1nc1cc3c(cc1c2-c1cc(OC)cc(OC)c1)OCO3` [7Q 24], the IC50/EC50 is 0.68 nM in [1]; 246 nM in [2] (setting [16]); 0.21 nM in [3] (setting [17]); 1.44 nM in [4]; 0.08 nM in assay [5]; 1.95 nM in [7] (setting [18]). For the same compound, the IC50/EC50 in assay [8] (HT-3) was found to be 3.59 nM. In addition, in [6], the “antitumor activity, 7Q-series (1)” value is on record as “much higher antitumor activity than the other compounds in this 7Q-series (1)”.
On to `CC[C@@]1(O)C(=O)OCc2c1cc1n(c2=O)Cc2cc3c(CN(C)C)c(O)ccc3nc2-1` [Topotecan, reference compound], for which the IC50/EC50 in assay [1] was 26.63 nM; in [9] (Table 5 lower part, UOK151 kidney cancer) it was greater than 200 nM; in assay [9] (Table 8, UOK151), greater than 200 nM; in assay [9] (Table 10, UOK151) it was greater than 200 nM; in assay [2] (setting [16]), greater than 500 nM; in assay [2] (Table 8, H1376) it was greater than 500 nM. In addition, the IC50/EC50 is listed as 52.8 nM in assay [3] (setting [17]); 52.8 nM in assay [3] (Table 8, UMUC-3); greater than 200 nM in assay [10] (Table 5 lower part, UOK262 kidney cancer); greater than 200 nM in [10] (Table 8, UOK262); greater than 200 nM in assay [10] (Table 10, UOK262); 96.4 nM in [4]. Moreover, the IC50/EC50 in assay [5] is 37.2 nM; in [7] (setting [18]), 46.1 nM; in assay [8] (HT-3 cervical carcinoma), 83.42 nM.
`CC[C@@]1(O)C(=O)OCc2c1cc1n(c2=O)Cc2c-1nc1cc3c(cc1c2-c1cccnc1)OCO3` [W-b2]: the IC50/EC50 is 2.24 nM in [11] and 4.6 nM in [7] (Table 9, A2008). The antitumor activity result in [12] is “much higher antitumor activity than the other compounds in this Wb-series”.
For the compound `CC[C@@]1(O)C(=O)OCc2c1cc1n(c2=O)Cc2c-1nc1cc3c(cc1c2-c1ccoc1)OCO3` [W-b3], the IC50/EC50 in [11] is reported as 0.92 nM; in assay [7] (Table 9, A2008) it was 16.15 nM. Further, the antitumor activity entry in [12] was “much higher antitumor activity than the other compounds in this Wb-series”.
Taken in the same sequence, the figures for `CC[C@@]1(O)C(=O)OCc2c1cc1n(c2=O)Cc2c-1nc1cc3c(cc1c2-c1cccs1)OCO3` [W-b6] were 1.2 nM, 11.1 nM and “much higher antitumor activity than the other compounds in this Wb-series”.
Consider `N.N.[Cl][Pt][Cl]` [cisplatin], for which the “GFP-negative (drug sensitive) PANC1 cells killed” value in [13] (50 μM) is 92%. The cell death in assay [13] (20 μM cisplatin, 10 nM FL118, or both) was roughly 18%. The “total cell population killed” value in assay [14] was 90%.
In the case of `Nc1ccn([C@@H]2O[C@H](CO)[C@@H](O)C2(F)F)c(=O)n1` [gemcitabine, reference compound], the “antitumor efficacy, single agent” value in assay [15] is “only delayed tumor growth”.
